# In patent US6831190B1, “Guanidinomethyl cyclohexane carboxylic acid ester derivatives” (Teikoku Chemical Industries Co., Ltd., priority 1994, dated 2004):
# Assays:
# [1] = tested on: Helicobacter pylori No. 28; test: MIC, agar plating dilution, clinical segregation strain; assay type: cell-based; settings: Strain 10: Helicobacter pylori No. 28
# Protocol: (§1) Minimum Inhibitory Concentration (MIC) was measured in accordance with the standard method of Japanese Chemotherapy Academy (Chemotherapy, 29: 76-79, 1981). Sensitivity was measured with an agar plating dilution using Brain-Heart Infusion agar (Difco Co.) which was added 0.1% of cyclodextrin. […] of the solutions of the compounds which were obtained in examples of the present invention was prepared by dissolving in dimethylsulfoxide. […] Each of 1 ml of those prepared solutions was dispensed in share, after sterilization, 9 ml of sensitivity measuring medium which is kept at 50° C. was added to each, and they were sufficiently mixed. The mixture was used as a plate for measuring sensitivity. Brain Heart Infusion agar medium (Difco Co.), which was added 0.1% of cyclodextrin, was used as bacteria growing medium, and was cultured under microair at 37° C. for three days, and the number of bacteria thereof was adjusted to about 106/ml. This was used as a bacterial solution for inoculation. The medium was painted in each square about 2 cm with nichromic line loop. The medium was cultured under microair for three days at 37° C. […] The each result is shown at Table 4.
# [2] = tested on: Helicobacter pylori No. 4; test: as above; assay type: cell-based; settings: Strain 7: Helicobacter pylori No. 4
# Protocol: as §1
# [3] = tested on: Helicobacter pylori No. 20; test: as above; assay type: cell-based; settings: Strain 9: Helicobacter pylori No. 20
# Protocol: as §1
# [4] = tested on: Helicobacter pylori No. 1; test: as above; assay type: cell-based; settings: Strain 4: Helicobacter pylori No. 1
# Protocol: as §1
# [5] = tested on: Helicobacter pylori No. 2; test: as above; assay type: cell-based; settings: Strain 5: Helicobacter pylori No. 2
# Protocol: as §1
# [6] = tested on: Helicobacter pylori No. 3; test: as above; assay type: cell-based; settings: Strain 6: Helicobacter pylori No. 3
# Protocol: as §1
# [7] = tested on: Helicobacter pylori No. 19; test: as above; assay type: cell-based; settings: Strain 8: Helicobacter pylori No. 19
# Protocol: as §1
# [8] = tested on: Escherichia coli NIH JC-2; test: MIC, standard method of Japanese Chemotherapy Academy; assay type: cell-based; settings: Objected Strain 3: Escherichia coli NIH JC-2
# Protocol: (§2) 1. Minimum Inhibitory Concentration (MIC) was measured in accordance with the standard method of Japanese Chemotherapy Academy (Chemotherapy, 29: 76-79, 1981).
# [9] = tested on: Bacillus subtilis ATCC 6633; test: as above; assay type: cell-based; settings: for MIC against bacillus subcillus ATCC 6633: standard method of Japanese Chemotherapy Academy
# Protocol: as §2
# (§3) And MIC of the compounds of Example 3, 36, 8, 14, 17, 21, 41 and 45 were measured.
# [10] = tested on: Staphylococcus aureus No. 2 (MRSA); test: as above; assay type: cell-based; settings: Strain 14: Staphylococcus aureus No. 2 (MRSA)
# Protocol: as §2, §3
# [11] = tested on: Staphylococcus aureus 209PJC; test: as above; assay type: cell-based; settings: Strain 11: Staphylococcus aureus 209PJC
# Protocol: as §2, §3
# [12] = tested on: Staphylococcus aureus ATCC 6538; test: as above; assay type: cell-based; settings: Strain 12: Staphylococcus aureus ATCC 6538
# Protocol: as §2, §3
# [13] = tested on: Helicobacter pylori ATCC 43629; test: MIC, agar plating dilution (standard method of Japanese Chemotherapy Academy); assay type: cell-based; settings: Objected Strain 2: Helicobacter pylori ATCC 43629
# How it was run: (§4)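 Agar dilution MIC followed the Japanese Chemotherapy Academy standard method, on Brain Heart Infusion agar with 0.1% cyclodextrin and compounds dissolved in DMSO. Plates were incubated microaerobically at 37 °C for three days.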
# [14] = tested on: Helicobacter pylori ATCC 43504; test: as above; assay type: cell-based; settings: Objected Strain 1: Helicobacter pylori ATCC 43504
# How it was run: as §4
# [15] = tested on: Helicobacter pylori No. 4; test: MIC and MBC, liquid medium dilution; assay type: cell-based; settings: Objected Strain 7: Helicobacter pylori No. 4
# Protocol: (§5) 2. Minimum Inhibitory Concentration (MIC) and Minimum Bacteria sterilizeory Concentration (MBC) against helicobacter pylon were measured in accordance with the liquid medium dilution. […] And […] of helicobacter pylon bacterial solution, which was cultured at 37° C. for three days and then diluted and prepared with the above mentioned liquid medium, was added to the mixtures to adjust the volume to 105 CFU/ml. […] After they were cultured by the same method as above mentioned, minimum concentration of the compounds which were not recognized the growth with the naked eyes were measured as the values of MBC.
# [16] = tested on: Helicobacter pylori ATCC 43629; test: MIC and MBC, liquid medium dilution; assay type: cell-based; settings: Objected Strain 2: Helicobacter pylori ATCC 43629
# Protocol: as §5
# [17] = tested on: Helicobacter pylori No. 1; test: MIC and MBC, liquid medium dilution; assay type: cell-based; settings: Objected Strain 4: Helicobacter pylori No. 1
# Protocol: as §5
# [18] = tested on: Helicobacter pylori ATCC 43504; test: MIC and MBC, liquid medium dilution; assay type: cell-based; settings: Objected Strain 1: Helicobacter pylori ATCC 43504
# Protocol: as §5
# [19] = tested on: Helicobacter pylori No. 2; test: MIC and MBC, liquid medium dilution; assay type: cell-based; settings: Objected Strain 5: Helicobacter pylori No. 2
# Protocol: as §5
# [20] = tested on: Helicobacter pylori No. 3; test: MIC and MBC, liquid medium dilution; assay type: cell-based; settings: Objected Strain 6: Helicobacter pylori No. 3
# Protocol: as §5
# [21] = tested on: ethanol hydrochloride ulceration; settings: against an ethanol hydrochloride ulceration; cited from earlier work
# helicobacter pylori = test: MIC of benexart hydrochloride, for reference; assay type: cell-based; settings: strain and medium not given
# Protocol: For reference, the value of MIC of benexart hydrochloride was >100 µg/ml.
MIC [2],MIC [4],MIC [5],MIC [6],MIC [8],MIC against bacillus subcillus ATCC 6633 [9],MIC [13],MIC [14],MIC [15],MIC [16],MIC [17],MIC [18],MIC [19],MIC [20],SMILES,MBC [15],MBC [16],MBC [17],MBC [18],MBC [19],MBC [20],further results
0.20 µg/mL,0.10 µg/mL,0.39 µg/mL,0.10 µg/mL,>25 µg/mL,> 25 µg/mL,0.39 µg/mL,0.39 µg/mL,0.39 µg/mL,0.39 µg/mL,0.20 µg/mL,0.20 µg/mL,0.39 µg/mL,0.10 µg/mL,"Cc1ccc(COC(=O)c2ccc(-c3ccc(OC(=O)[C@H]4CC[C@H](CNC(=N)N)CC4)cc3)cc2)cc1.Cl [Example 14, trans-4-guanidinomethyl cyclohexane carboxylic acid [4-[4-(4-methylbenzyloxy carbonyl)phenyl]phenylester].hydrochloride]",0.39 µg/mL,1.56 µg/mL,0.20 µg/mL,0.20 µg/mL,1.56 µg/mL,0.10 µg/mL,MIC [1]: 0.39 µg/mL; MIC [3]: 0.39 µg/mL; MIC [7]: 0.20 µg/mL; MIC ([9]; Strain 13: Bacillus subtilis ATCC 6633): >25 µg/mL; MIC [10]: >25 µg/mL; MIC [11]: >25 µg/mL; MIC [12]: >25 µg/mL
0.20 µg/mL,0.10 µg/mL,0.39 µg/mL,0.10 µg/mL,>25 µg/mL,> 25 µg/mL,0.39 µg/mL,0.78 µg/mL,0.39 µg/mL,0.39 µg/mL,0.20 µg/mL,0.20 µg/mL,0.39 µg/mL,0.05 µg/mL,"Cl.N=C(N)NC[C@H]1CC[C@H](C(=O)Oc2ccc(-c3ccc(C(=O)OCc4ccc(Cl)cc4)cc3)cc2)CC1 [Example 15, trans4-guanidinomethyl cyclohexane carboxylic acid [4-[4-(4-chlorobenzyloxy carbonyl)phenyl]phenylester].hydrochloride]",0.39 µg/mL,1.56 µg/mL,0.78 µg/mL,0.39 µg/mL,1.56 µg/mL,0.10 µg/mL,–
0.39 µg/mL,0.20 µg/mL,0.78 µg/mL,0.20 µg/mL,>25 µg/mL,> 25 µg/mL,0.78 µg/mL,0.78 µg/mL,0.10 µg/mL,0.39 µg/mL,0.20 µg/mL,0.20 µg/mL,0.78 µg/mL,0.05 µg/mL,"Cl.N=C(N)NC[C@H]1CC[C@H](C(=O)Oc2ccc(-c3ccc(C(=O)OCc4ccc(F)cc4)cc3)cc2)CC1 [Example 16, trans-4-guanidinomethyl cyclohexane carboxylic acid [4-[4-(4-fluorobenzyloxycarbonyl)phenyl]phenylester].hydrochloride]",0.39 µg/mL,1.56 µg/mL,0.78 µg/mL,0.39 µg/mL,3.13 µg/mL,0.10 µg/mL,–

# The remaining lines, values behind:
SMILES,MIC [2],MIC [4],MIC [5],MIC [6],MIC [8],MIC against bacillus subcillus ATCC 6633 [9],MIC [13],MIC [14],MIC [15],MIC [16],MIC [17],MIC [18],MIC [19],MIC [20],MBC [15],MBC [16],MBC [17],MBC [18],MBC [19],MBC [20],further results
N=C(N)NCC1CCC(C(=O)Oc2ccc(CCC(=O)NO)cc2)CC1 (stereo not drawn) [Formula (XIV)],–,–,–,–,–,–,–,–,–,–,–,–,–,–,–,–,–,–,–,–,ulceration restraining ratio [21]: 88.7%
Cl.NC(N)=NCC1CCC(C(=O)Oc2ccccc2C(=O)OCc2ccccc2)CC1 (stereo not drawn) [benexart hydrochloride],–,–,–,–,–,–,–,–,–,–,–,–,–,–,–,–,–,–,–,–,MIC (helicobacter pylori): > 100 µg/mL
